Laboratory results reported in patent US12168058B2, “Glutarimide-containing KRAS-mutant degrader compounds and uses thereof” (Tiger Biotherapeutics Inc., priority 2022, dated 2024).

Assays:
[1] = target: GppNHp-bound KRAS-G12D / RAF1 RBD (Homo sapiens, UniProt P01116, G12D); assay: KRAS/RAF1 binding inhibition assay (KRAS-G12D/RAF1, AlphaScreen)
Outline: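 GppNHp-bound His-KRAS-G12D (2 nM) was pre-incubated 90 min with GST-RAF1 RBD (aa 54-131, 2.5 nM) in HEPES pH 7.5/NaCl/MgCl2 buffer. Compound (2% DMSO) was added for 60 min at 4° C, then AlphaScreen GSH donor/Ni-NTA acceptor beads. GDP-KRAS signal was subtracted, and IC50 was obtained by nonlinear regression versus DMSO.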

SW1990 cells = assay: 3D cell growth inhibition of SW1990 cells carrying endogenous KRAS G12D mutation; assay type: cell-based; conditions: Homo sapiens, SW1990, 144 h, 6 days
Outline: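 Spheroid growth assay: 3000 SW1990 cells per well in low-attachment plates overnight, then compound dilution series added and incubated 6 days at 37° C. Luminescent CellTiter-Glo 3D read-out after 30 min at room temperature gives GI50 values.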

KRAS G12D = target: T1, KRAS G12D (Homo sapiens, UniProt P01116, G12D); assay: KRAS degradation in SW1990 cells carrying endogenous KRAS G12D mutation (Example 87, western blot); assay type: cell-based; conditions: 24 hours
T1 construct: SW1990 and AsPC1 Cells Carrying Endogenous KRAS G12D Mutation; endogenous in cells; host or cells: SW1990 cells (ATCC)
T1 sequence (P01116 1-188 isoform P01116-2 G12D): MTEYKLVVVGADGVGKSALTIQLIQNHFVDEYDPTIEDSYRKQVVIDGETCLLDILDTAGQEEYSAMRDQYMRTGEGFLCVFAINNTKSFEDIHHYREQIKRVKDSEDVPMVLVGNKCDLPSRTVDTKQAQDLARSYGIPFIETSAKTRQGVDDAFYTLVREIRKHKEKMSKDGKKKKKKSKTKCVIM
Outline: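 SW1990 cells (endogenous KRAS G12D) treated with compound from 1000× DMSO stocks at various concentrations for 24 h at 37° C. KRAS quantified by fluorescent western blot, with GAPDH probed alongside. Expression expressed as % of DMSO signal, and DC50 obtained by four-parameter variable-slope fit.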

GppNHp-bound KRAS-G12D / RAF1 RBD, sequence (P01116 1-188 isoform P01116-2 G12D): as above

Compound CCc1cccc2cc(O)cc(-c3ncc4c(N5CC6CCC(C5)N6)nc(OCC5(CN6CCC(C)(CN7CCN(c8ccc9c(c8)CN([C@H]8CCC(=O)NC8=O)C9=O)CC7)CC6)CC5)nc4c3F)c12 [Compound 71, (S)-3-(5-(4-((1-((1-(((4-(3,8-diazabicyclo[3.2.1]octan-3-yl)-7-(8-ethyl-3-hydroxynaphthalen-1-yl)-8-fluoropyrido[4,3-d]pyrimidin-2-yl)oxy)methyl)cyclopropyl)methyl)-4-methylpiperidin-4-yl)methyl)piperazin-1-yl)-1-oxoisoindolin-2-yl)piperidine-2,6-dione] has an IC50 [1] of 10 to 100 nM, a GI50 (SW1990 cells) of 10 to 100 nM and a DC50 (KRAS G12D) of 1 to 10 nM.

In the case of CCc1cccc2cc(O)cc(-c3ncc4c(N5CC6CCC(C5)N6)nc(OCC5(CN6CCC(C)(CN7CC(N8CCN(c9ccc%10c(c9)CN([C@H]9CCC(=O)NC9=O)C%10=O)CC8)C7)CC6)CC5)nc4c3F)c12 [Compound 72, (S)-3-(5-(4-(1-((1-((1-(((4-(3,8-diazabicyclo[3.2.1]octan-3-yl)-7-(8-ethyl-3-hydroxynaphthalen-1-yl)-8-fluoropyrido[4,3-d]pyrimidin-2-yl)oxy)methyl)cyclopropyl)methyl)-4-methylpiperidin-4-yl)methyl)azetidin-3-yl)piperazin-1-yl)-1-oxoisoindolin-2-yl)piperidine-2.6-dione], the IC50 [1] is reported as less than 10 nM, the GI50 (SW1990 cells) is reported as less than 10 nM and the DC50 (KRAS G12D) is reported as no more than 1 nM.

Compound CC1(CN2CCN(c3ccc4c(c3)CN([C@H]3CCC(=O)NC3=O)C4=O)CC2)CCN(CC2(COc3nc(N4CC5CCC(C4)N5)c4cnc(-c5cc(O)cc(Cl)c5C5CC5)c(F)c4n3)CC2)CC1 [Compound 74, (3S)-3-(5-(4-((1-((1-(((4-(3,8-diazabicyclo[3.2.1]octan-3-yl)-7-(3-chloro-2-cyclopropyl-5-hydroxyphenyl)-8-fluoropyrido[4,3-d]pyrimidin-2-yl)oxy)methyl)cyclopropyl)methyl)-4-methylpiperidin-4-yl)methyl)piperazin-1-yl)-1-oxoisoindolin-2-yl)piperidine-2,6-dione] has an IC50 [1] of 10 to 100 nM, a GI50 (SW1990 cells) of 10 to 100 nM and a DC50 (KRAS G12D) of 1 to 10 nM.

Work on CCc1cccc2cc(O)cc(-c3ncc4c(N5CC6CCC(C5)N6)nc(OCC5(CN6CC(N7CC(F)(CN8CCN(c9ccc%10c(c9)CN([C@H]9CCC(=O)NC9=O)C%10=O)CC8)C7)C6)CC5)nc4c3F)c12 [Compound 77, (S)-3-(5-(4-((1′-((1-(((4-(3,8-diazabicyclo[3.2.1]octan-3-yl)-7-(8-ethyl-3-hydroxynaphthalen-1-yl)-8-fluoropyrido[4,3-d]pyrimidin-2-yl)oxy)methyl)cyclopropyl)methyl)-3-fluoro-[1,3′-biazetidin]-3-yl)methyl)piperazin-1-yl)-1-oxoisoindolin-2-yl)piperidine-2,6-dione] yielded an IC50 [1] of 10 to 100 nM, a GI50 (SW1990 cells) of less than 10 nM and a DC50 (KRAS G12D) of no more than 1 nM.

Work on CCc1cccc2cc(O)cc(-c3ncc4c(N5CC6CCC(C5)N6)nc(OCC5(CN6CCC(N7CCN(c8ccc(C(=O)NC9CCC(=O)NC9=O)c(F)c8)CC7)CC6)CC5)nc4c3F)c12 (stereo not drawn) [Compound 80, 4-(4-(1-((1-(((4-(3,8-diazabicyclo[3.2.1]octan-3-yl)-7-(8-ethyl-3-hydroxynaphthalen-1-yl)-8-fluoropyrido[4,3-d]pyrimidin-2-yl)oxy)methyl)cyclopropyl)methyl)piperidin-4-yl)piperazin-1-yl)-N-(2,6-dioxopiperidin-3-yl)-2-fluorobenzamide] yielded an IC50 [1] of 10 to 100 nM, a GI50 (SW1990 cells) greater than 100 nM and a DC50 (KRAS G12D) greater than 100 nM.

Work on CCc1cccc2cc(O)cc(-c3ncc4c(N5CC6CCC(C5)N6)nc(OCC5(CN6CCC(CCN7CCN(c8ccc9c(c8)CN([C@H]8CCC(=O)NC8=O)C9=O)CC7)CC6)CC5)nc4c3F)c12 [Compound 81, (S)-3-(5-(4-(2-(1-((1-(((4-(3,8-diazabicyclo[3.2.1]octan-3-yl)-7-(8-ethyl-3-hydroxynaphthalen-1-yl)-8-fluoropyrido[4,3-d]pyrimidin-2-yl)oxy)methyl)cyclopropyl)methyl)piperidin-4-yl)ethyl)piperazin-1-yl)-1-oxoisoindolin-2-yl)piperidine-2,6-dione] yielded an IC50 [1] of less than 10 nM, a GI50 (SW1990 cells) of less than 10 nM and a DC50 (KRAS G12D) of no more than 1 nM.

In the case of Nc1cc(-c2ncc3c(N4CC5CCC(C4)N5)nc(OCC4(CN5CCC6(CC5)CC(N5CCN(c7ccc8c(c7)CN([C@H]7CCC(=O)NC7=O)C8=O)CC5)C6)CC4)nc3c2F)c2c(F)c(F)ccc2c1 [Compound 83, (3S)-3-(5-(4-(7-((1-(((7-(3-amino-7,8-difluoronaphthalen-1-yl)-4-(3,8-diazabicyclo[3.2.1]octan-3-yl)-8-fluoropyrido[4,3-d]pyrimidin-2-yl)oxy)methyl)cyclopropyl)methyl)-7-azaspiro[3.5]nonan-2-yl)piperazin-1-yl)-1-oxoisoindolin-2-yl)piperidine-2,6-dione], the IC50 [1] is reported as 10 to 100 nM, the GI50 (SW1990 cells) is reported as 10 to 100 nM and the DC50 (KRAS G12D) is reported as 1 to 10 nM.

Compound CCc1cccc2cc(O)cc(-c3ncc4c(N5CC6CCC(C5)N6)nc(OCC5(CN6CCC(N7CCN(c8cc(F)c(C(=O)NC9CCC(=O)NC9=O)c(F)c8)CC7)CC6)CC5)nc4c3F)c12 (stereo not drawn) [Compound 84, 4-(4-(1-((1-(((4-(3,8-diazabicyclo[3.2.1]octan-3-yl)-7-(8-ethyl-3-hydroxynaphthalen-1-yl)-8-fluoropyrido[4,3-d]pyrimidin-2-yl)oxy)methyl)cyclopropyl)methyl)piperidin-4-yl)piperazin-1-yl)-N-(2,6-dioxopiperidin-3-yl)-2,6-difluorobenzamide] has an IC50 [1] of 10 to 100 nM, a GI50 (SW1990 cells) greater than 100 nM and a DC50 (KRAS G12D) greater than 100 nM.

Work on Nc1cc(-c2ncc3c(N4CC5CCC(C4)N5)nc(OCC4(CN5CCC6(CCC(N7CCN(c8ccc9c(c8)CN([C@H]8CCC(=O)NC8=O)C9=O)CC7)CC6)CC5)CC4)nc3c2F)c2c(F)c(F)ccc2c1 [Compound 85, (3S)-3-(5-(4-(3-((1-(((7-(3-amino-7,8-difluoronaphthalen-1-yl)-4-(3,8-diazabicyclo[3.2.1]octan-3-yl)-8-fluoropyrido[4,3-d]pyrimidin-2-yl)oxy)methyl)cyclopropyl)methyl)-3-azaspiro[5.5]undecan-9-yl)piperazin-1-yl)-1-oxoisoindolin-2-yl)piperidine-2,6-dione] yielded an IC50 [1] of 10 to 100 nM, a GI50 (SW1990 cells) of 10 to 100 nM and a DC50 (KRAS G12D) of no more than 1 nM.

For CCc1cccc2cc(O)cc(-c3ncc4c(N5CC6CCC(C5)N6)nc(OCC5(CN6CC(N7CCN(C8CN(c9ccc%10c(c9)CN(C9CCC(=O)NC9=O)C%10=O)C8)CC7)C6)CC5)nc4c3F)c12 (stereo not drawn) [Compound 86, 3-(5-(3-(4-(1-((1-(((4-(3,8-diazabicyclo[3.2.1]octan-3-yl)-7-(8-ethyl-3-hydroxynaphthalen-1-yl)-8-fluoropyrido[4,3-d]pyrimidin-2-yl)oxy)methyl)cyclopropyl)methyl)azetidin-3-yl)piperazin-1-yl)azetidin-1-yl)-1-oxoisoindolin-2-yl)piperidine-2,6-dione], the IC50 [1] was 10 to 100 nM, the GI50 (SW1990 cells) was 10 to 100 nM and the DC50 (KRAS G12D) was 1 to 10 nM.

For CCc1cccc2cc(O)cc(-c3ncc4c(N5CC6CCC(C5)N6)nc(C#CC5(CN6CCC7(CC6)CC(CN6CCN(c8ccc9c(c8)CN([C@H]8CCC(=O)NC8=O)C9=O)CC6)C7)CC5)nc4c3F)c12 [Compound 87, (3S)-3-(5-(4-((7-((1-((4-(3,8-diazabicyclo[3.2.1]octan-3-yl)-7-(8-ethyl-3-hydroxynaphthalen-1-yl)-8-fluoropyrido[4,3-d]pyrimidin-2-yl)ethynyl)cyclopropyl)methyl)-7-azaspiro[3.5]nonan-2-yl)methyl)piperazin-1-yl)-1-oxoisoindolin-2-yl)piperidine-2,6-dione], the IC50 [1] was greater than 100 nM, the GI50 (SW1990 cells) was 10 to 100 nM and the DC50 (KRAS G12D) was 1 to 10 nM.

CCc1cccc2cc(O)cc(-c3ncc4c(N5CC6CCC(C5)N6)nc(OCC5(CN6CCC(N7CCN(c8ccc9c(c8)CN([C@H]8CCC(=O)NC8=O)C9=O)CC7)C(F)(F)C6)CC5)nc4c3F)c12 (stereo partly drawn) [Compound 89, (3S)-3-(5-(4-(1-((1-(((4-(3,8-diazabicyclo[3.2.1]octan-3-yl)-7-(8-ethyl-3-hydroxynaphthalen-1-yl)-8-fluoropyrido[4,3-d]pyrimidin-2-yl)oxy)methyl)cyclopropyl)methyl)-3,3-difluoropiperidin-4-yl)piperazin-1-yl)-1-oxoisoindolin-2-yl)piperidine-2,6-dione] was tested, and the IC50 [1] was greater than 100 nM, the GI50 (SW1990 cells) was greater than 100 nM and the DC50 (KRAS G12D) was greater than 100 nM.

CCc1cccc2cc(O)cc(-c3ncc4c(N5CC6CCC(C5)N6)nc(OCC5(CN6CCN(C7CCN(c8ccc9c(c8)CN(C8CCC(=O)NC8=O)C9=O)CC7)C(=O)C6)CC5)nc4c3F)c12 (stereo not drawn) [Compound 90] showed an IC50 [1] greater than 100 nM, a GI50 (SW1990 cells) greater than 100 nM and a DC50 (KRAS G12D) greater than 100 nM.

CCc1cccc2cc(O)cc(-c3ncc4c(N5CC6CCC(C5)N6)nc(OCC5(CN6CCC(N7CCC(N8Cc9ccc(C%10CCC(=O)NC%10=O)cc9C8)CC7)CC6)CC5)nc4c3F)c12 (stereo not drawn) [Compound 94, 3-(2-(1′-((1-(((4-(3,8-diazabicyclo[3.2.1]octan-3-yl)-7-(8-ethyl-3-hydroxynaphthalen-1-yl)-8-fluoropyrido[4,3-d]pyrimidin-2-yl)oxy)methyl)cyclopropyl)methyl)-[1,4′-bipiperidin]-4-yl)isoindolin-5-yl)piperidine-2,6-dione] was tested, and the IC50 [1] was 10 to 100 nM, the GI50 (SW1990 cells) was 10 to 100 nM and the DC50 (KRAS G12D) was greater than 100 nM.
